Laboratory results reported in US20240239801A1, “PYRIMIDO[5,4,D]PYRIMIDINE COMPOUNDS, COMPOSITIONS COMPRISING THEM AND USES THEREOF” (Université de Montréal, priority 2021, published 2024).
Like-named read-outs stand apart in the source and are kept apart here.

Columns and labels:
Experiment in all cases: Proliferation inhibition, CellTiter-Glo
Format in all cases: cell-based, human
RKO = settings: Table D-1, 3 days, read-out: RKO Prolif. EC50
Description: (§1) All cancer cell lines (A375, A101D, A2058, RKO, HT29 SK-MEL 30, IPC298, HepG2, HCT-116, Lovo, SW620, SW480, NCI-H358, NCI-H2122, Calu-6, NCIH2087, NCIH1755, NCIH1666 and Mewo) were obtained from ATCC and cultured in RPMI-1640 medium (Gibco) supplemented with 5% heat inactivated fetal bovine serum (FBS, Wisent) at 37° C. under 5% CO2. Cells were maintained in T175 flasks (Greiner). They were passaged by removing the culture medium, washing once in 10 mL of room temperature Phosphate Buffered Saline (PBS; Wisent) and incubating at 37° C. with 2 mL of 0.05% Trypsin (Thermo-Fisher). Trypsin was then inactivated by adding complete growth medium and the cells were then replated in a T175 culture dish at the appropriate dilution. All cell lines were routinely tested for mycoplasma contamination. Tissue type and mutational status of each cell line can be found in Table B.
(§2) CellTiter-Glo® viability analysis was conducted on cells plated in […] of complete RPMI-1640 growth medium in 96-well flat-bottomed white opaque plates (Greiner or Corning) at a density indicated in Table E (for each CCL, number of cells plated per well of a 96-well plate to perform the CellTiter-Glo® cell viability assay). The cell density in cells/cm^2 would correspond to cell number divided by the area of one well of a 96-well plate (0.32 cm^2). Cells were maintained overnight at 37° C. under 5% CO2 before treatment with compounds' dilution series for 3 days.
(§3) In a dilution series 100 μL/well of test substance dilution prepared in complete RPMI-1640 growth media was added to the cells plated initially in 100 μL of growth media. The dilution series is selected so that ten concentrations cover a range from 30 μM or 10 μM to […]. If necessary (as in the case of A375 cells, which were more sensitive to the compounds) the initial concentration of 10 μM is lowered to 1 μM and further dilution is carried out accordingly. The final concentration of DMSO in the assay is set to 0.5%.
(§4) After 3 days of incubation, the growth media were removed by aspiration and 60 μL of diluted CellTiter-Glo® reagent (10 μL CellTiter-Glo® reagent+50 μL of PBS) was added to each well. Cells were allowed to lyse and to equilibrate in CellTiter-Glo® reagent by 5 min incubation on a plate shaker followed by 10 min incubation at room temperature. Luminescence signals were then acquired on a Synergy Neo2 plate reader (Biotek).
(§5) The effect of each compound dilution on the proliferation of cancer cell lines was expressed in % inhibition and calculated as follows. An internal 100% inhibition control (1 μM of trametinib; cat. No. HY-10999; MedChem Express; CAS No. 871700-17-3) was included in each plate and used as a measure of CellTiter-Glo® signal background. The value obtained for trametinib was subtracted from each data point. The average of DMSO (vehicle) controls (set as 0% inhibition) was established and used to calculate % inhibition:
(§6) The ability of each compound to inhibit proliferation was expressed as a EC50 value obtained by plotting the effect values for each data point of a dilution series and fitting the obtained curves using a log(agonist) versus response−variable slope (four parameters) function using GraphPadPrism (V7.0) or Dotmatics Screening Ultra platform.

Mewo = settings: Table D-2, 3 days, read-out: Mewo Prolif. EC50
Description: as §1, §2, §3, §4, §5, §6

SK-MEL30 = settings: Table D-1, 3 days, read-out: SK-MEL30 Prolif. EC50
Description: as §1, §2, §3, §4, §5, §6

NCI-H2122 = settings: Table D-2, 3 days, read-out: NCI-H2122 Prolif. EC50
Description: as §1, §2, §3, §4, §5, §6

NCIH2087 = settings: Table D-2, 3 days, read-out: NCIH2087 Prolif. EC50
Description: as §1, §2, §3, §4, §5, §6

NCIH1755 = settings: Table D-2, 3 days, read-out: NCIH1755 Prolif. EC50
Description: as §1, §2, §3, §4, §5, §6

SW620 = settings: Table D-2, 3 days, read-out: SW620 Prolif. EC50
Description: as §1, §2, §3, §4, §5, §6

IPC298 = settings: Table D-1, 3 days, read-out: IPC298 Prolif. EC50
Description: as §1, §2, §3, §4, §5, §6

HCT116 = settings: Table D-1, 3 days, read-out: HCT116 Prolif. EC50
Description: as §1, §2, §3, §4, §5, §6

HepG2 = settings: Table D-1, 3 days, read-out: HepG2 Prolif. EC50
Description: as §1, §2, §3, §4, §5, §6

Calu6 = settings: Table D-2, 3 days, read-out: Calu6 Prolif. EC50
Description: as §1, §2, §3, §4, §5, §6

Lovo = settings: Table D-2, 3 days, read-out: Lovo Prolif. EC50
Description: as §1, §2, §3, §4, §5, §6

A2058 = settings: Table D-1, 3 days, read-out: A2058 Prolif. EC50
Description: as §1, §2, §3, §4, §5, §6

Work on `Cc1ccc2c(Nc3cccc(Cl)c3F)nccc2c1NC(=O)c1csc2c(N)ncnc12` [Belvarafenib, reference compound] yielded an EC50 (RKO; Homo sapiens, RKO, 72 h) of under 300 nM, an EC50 (Mewo; Homo sapiens, MeWo, 72 h) of 300 to 3000 nM and an EC50 (SK-MEL30; Homo sapiens, SK-MEL-30, 72 h) of under 300 nM. For the same compound, the EC50 (NCI-H2122; Homo sapiens, NCI-H2122, 72 h) was 300 to 3000 nM, the EC50 (NCIH2087; Homo sapiens, NCI-H2087, 72 h) was under 300 nM and the EC50 (NCIH1755; Homo sapiens, NCI-H1755, 72 h) was over 3000 nM. It also gave an EC50 (SW620; Homo sapiens, SW-620, 72 h) of 300 to 3000 nM, an EC50 (IPC298; Homo sapiens, IPC-298, 72 h) of under 300 nM and an EC50 (HCT116; Homo sapiens, HCT-116, 72 h) of 300 to 3000 nM. For the same compound, the EC50 (HepG2; Homo sapiens, HepG2, 72 h) was under 300 nM, the EC50 (Calu6; Homo sapiens, Calu-6, 72 h) was under 300 nM and the EC50 (Lovo; Homo sapiens, LoVo, 72 h) was under 300 nM.
Work on `Cc1c(F)cccc1S(=O)(=O)Nc1ccc(F)c(Nc2ncnc3cnc(-n4cc(C(=O)N(C)Cc5ccncc5)c5ccccc54)nc23)c1F` [Example 98] yielded an EC50 (RKO) of under 300 nM, an EC50 (Mewo) of under 300 nM and an EC50 (SK-MEL30) of under 300 nM. For the same compound, the EC50 (NCI-H2122) was 300 to 3000 nM, the EC50 (NCIH2087) was under 300 nM and the EC50 (NCIH1755) was under 300 nM. For the same compound, the EC50 (SW620) was 300 to 3000 nM, the EC50 (IPC298) was under 300 nM and the EC50 (HCT116) was under 300 nM. It also gave an EC50 (HepG2) of under 300 nM, an EC50 (Calu6) of under 300 nM and an EC50 (Lovo) of under 300 nM. For the same compound, the EC50 (A2058) was under 300 nM.
For `COc1ccc(S(=O)(=O)Nc2ccc(F)c(Nc3ncnc4cnc(-n5cnc6c(N)cccc65)nc34)c2F)c(C)c1Cl` [Example 112], the EC50 (RKO) was under 300 nM, the EC50 (Mewo) was 300 to 3000 nM and the EC50 (SK-MEL30) was under 300 nM. It also gave an EC50 (NCI-H2122) of 300 to 3000 nM, an EC50 (NCIH2087) of 300 to 3000 nM and an EC50 (SW620) of 300 to 3000 nM. The EC50 (HCT116) was 300 to 3000 nM, the EC50 (HepG2) was under 300 nM and the EC50 (Calu6) was 300 to 3000 nM. The EC50 (Lovo) was under 300 nM and the EC50 (A2058) was under 300 nM.
Compound `Cc1c(F)cccc1S(=O)(=O)Nc1ccc(F)c(Nc2ncnc3cnc(-n4cnc5c(-c6cccnc6)cccc54)nc23)c1F` [Example 114] has an EC50 (RKO; Homo sapiens, RKO, 72 h) of under 300 nM, an EC50 (Mewo; Homo sapiens, MeWo, 72 h) of 300 to 3000 nM and an EC50 (SK-MEL30; Homo sapiens, SK-MEL-30, 72 h) of 300 to 3000 nM. It also gave an EC50 (NCI-H2122; Homo sapiens, NCI-H2122, 72 h) of over 3000 nM, an EC50 (NCIH2087; Homo sapiens, NCI-H2087, 72 h) of 300 to 3000 nM and an EC50 (NCIH1755; Homo sapiens, NCI-H1755, 72 h) of over 3000 nM. For the same compound, the EC50 (SW620; Homo sapiens, SW-620, 72 h) was over 3000 nM, the EC50 (IPC298; Homo sapiens, IPC-298, 72 h) was under 300 nM and the EC50 (HCT116; Homo sapiens, HCT-116, 72 h) was 300 to 3000 nM. The EC50 (HepG2; Homo sapiens, HepG2, 72 h) was under 300 nM, the EC50 (Calu6; Homo sapiens, Calu-6, 72 h) was over 3000 nM and the EC50 (Lovo; Homo sapiens, LoVo, 72 h) was under 300 nM. For the same compound, the EC50 (A2058; Homo sapiens, A2058, 72 h) was under 300 nM.
For `O=S(=O)(Nc1ccc(F)c(Nc2ncnc3cnc(-n4cnc5c(N6CCC7(CCCO7)CC6)cccc54)nc23)c1F)c1cccc(Cl)c1Cl` [Example 129], the EC50 (RKO) was under 300 nM, the EC50 (Mewo) was under 300 nM and the EC50 (SK-MEL30) was under 300 nM. The EC50 (NCI-H2122) was 300 to 3000 nM, the EC50 (NCIH2087) was 300 to 3000 nM and the EC50 (NCIH1755) was 300 to 3000 nM. It also gave an EC50 (SW620) of 300 to 3000 nM, an EC50 (IPC298) of under 300 nM and an EC50 (HCT116) of 300 to 3000 nM. The EC50 (HepG2) was under 300 nM, the EC50 (Calu6) was 300 to 3000 nM and the EC50 (Lovo) was under 300 nM. For the same compound, the EC50 (A2058) was under 300 nM.
